Legend:
KRAS G12V = KRAS G12V (Homo sapiens (Human), UniProt P01116, G12V); assay: SPR binding affinity and kinetics, GTPγS-loaded KRAS G12V; details: GTPγS loaded protein, geomean
Description: (§1) No additional regeneration was used.
(§2) Compound dissociation was monitored for at least 3600 seconds. […] No additional regeneration was used.
(§3) The adequateness of the fit was judged by c2 values and the randomness of residue distribution.

[1] = system: H358 (non-small cell lung cancer cell line); assay: KRAS Cell Titer Glo (CTG) cell proliferation assay, H358; format: cell-based; details: H358 cells, 7-day CTG, geomean IC50
Description: (§4) The CellTiter-Glo® (CTG) Luminescent Cell Viability Assay is a homogeneous method of determining the number of viable cells in culture based on quantitation of the ATP present, an indicator of metabolically active cells. The CTG is designed for use with multi-well formats, making it ideal for automated high-throughput screening (HTS), cell proliferation and cytotoxicity assays. The homogeneous assay procedure involves adding the single reagent (CellTiter-Glo® Reagent) directly to cells cultured in serum-supplemented medium. Cell washing, removal of medium and multiple pipetting steps are not required. The system detects as few as 15 cells per well in a 384-well format in 10 minutes after adding reagent and mixing.
(§5) Cells are grown in humidified 5% CO2 incubator at 37° C. using the culture conditions outlined below. All cell culture media reagents were purchased from Gibco. Cell lines purchased from ATCC: H358 (non-small cell lung cancer cell line), SW620 (colorectal cancer cell line), PANC08.13 (RPM11640+10% FBS+10 units/mL Insulin, pancreatic cancer cell line). Test and control compounds are dispensed as nanoliter drops according to desired final concentrations in 0.1% DMSO using Echo Acoustic Dispenser onto 384 assay plates (Corning, Cat #3764) prior to cell seeding. Cells were seeded in 40 μL volume per well at the following cell densities (cells per well): H358 (300), SW620 (750), PANC 08.13 (600). Cells are incubated in the presence of compound for 7-days. Viability is determined on Day 7 using CellTiter-Glo® (CTG) Luminescent Cell Viability Assay (Promega). CTG is added to a […] per well and incubated at room temperature for 15 minutes before luminescence is captured using an EnVision Reader with LUM384 US protocol. Data is analyzed using Activity Base to determine compound response and will be represented either as a percent effect (PCTEFF) or percent control (PCTOCTL) as described: Zero percent effect control (ZPE) (Negative control)—100% DMSO. Hundred percent effect (HPE) (Positive control)—1 uM Trametinib (GSK1120212, MEK inhibitor) (4 nl of 10 mM and 36 nl of DMSO per well). The following equations/nomenclature are used (% Effect; PCTEFF) and (% of Control; PCTOCTL): PCTEFF: 100*(Raw_Data_Value−HPE/ZPE−HPE), PCTOCTL: 100*Raw_Data_Value/User_Defined_Array), where the User_Defined_Array is either summarized HPE or ZPE.
(§6) Cells with “nd” indicate compound not tested in that particular assay at time of writing. It is to be understood that the geomean IC50 data may change slightly over time with increasing repeat data (ie: increasing n #).

[2] = system: SW620 (colorectal cancer cell line); assay: KRAS Cell Titer Glo (CTG) cell proliferation assay, SW620; format: cell-based; details: SW620 cells, 7-day CTG, geomean IC50
Description: as §4, §5, §6

[3] = system: PANC08.13 (pancreatic cancer cell line); assay: KRAS Cell Titer Glo (CTG) cell proliferation assay, PANC08.13; format: cell-based; details: PANC08.13 cells, 7-day CTG, geomean IC50
Description: as §4, §5, §6

KRAS G12C = KRAS G12C (Homo sapiens (Human), UniProt P01116, G12C); assay: SPR binding affinity and kinetics, GTPγS-loaded KRAS G12C; details: GTPγS loaded protein, geomean
Description: as §1, §2, §3

KRAS Wild Type = KRAS Wild Type (Homo sapiens (Human), UniProt P01116); assay: SPR binding affinity and kinetics, GTPγS-loaded KRAS Wild Type; details: GTPγS loaded protein, geomean
Description: as §1, §2, §3

KRAS G12D = KRAS G12D (Homo sapiens (Human), UniProt P01116, G12D); assay: SPR binding affinity and kinetics, GTPγS-loaded KRAS G12D; details: GTPγS loaded protein, geomean
Description: as §1, §2, §3

[4] = Homo sapiens, PANC-08-13, 168 h

Compound	Kd (KRAS G12V)	IC50 ([1]; Homo sapiens, NCI-H358, 168 h)	IC50 ([2]; Homo sapiens, SW-620, 168 h)	IC50 [3, 4]	Kd (KRAS G12C)	Kd (KRAS Wild Type)	Kd (KRAS G12D)	IC50 [1]	IC50 [2]	IC50 [3]
C=C1CN2C[C@@H](O)C[C@@]2(COc2nc3c4c(nc(-c5c(C6CC6)c(Cl)cc6[nH]ncc56)c(F)c4n2)OC[C@@H]2COCCCN32)C1 [Example 17, (2S,7aR)-7a-({[(8aS)-5-(6-chloro-5-cyclopropyl-1H-indazol-4-yl)-4-fluoro-8a,9,12,13-tetrahydro-8H,11H-7,10-dioxa-1,3,6,13a-tetraazanaphtho[1,8-ab]heptalen-2-yl]oxy}methyl)-6-methylidenehexahydro-1H-pyrrolizin-2-ol]	4 nM	80 nM	190 nM	31 nM	5 nM	5 nM	3 nM	–	–	–
C=C1CN2CC(F)C[C@@]2(COc2nc3c4c(nc(-c5c(C6CC6)c(Cl)cc6[nH]ncc56)c(F)c4n2)OC[C@@H]2COCCCN32)C1 (stereo partly drawn) [Example 14, (8aS)-5-(6-chloro-5-cyclopropyl-1H-indazol-4-yl)-4-fluoro-2-{[(2R,7aR)-2-fluoro-6-methylidenetetrahydro-1H-pyrrolizin-7a(5H)-yl]methoxy}-8a,9,12,13-tetrahydro-8H,11H-7,10-dioxa-1,3,6,13a-tetraazanaphtho[1,8-ab]heptalene]	7 nM	80 nM	30 nM	13 nM	9 nM	8 nM	5 nM	–	–	–
OC/C=C1\CN2CCC[C@@]2(COc2nc3c4c(nc(-c5c(C6CC6)c(Cl)cc6[nH]ncc56)c(F)c4n2)OC[C@@H]2COCCCN32)C1 [Example 44, (2Z)-2-[(7aS)-7a-({[(8aS)-5-(6-chloro-5-cyclopropyl-1H-indazol-4-yl)-4-fluoro-8a,9,12,13-tetrahydro-8H,11H-7,10-dioxa-1,3,6,13a-tetraazanaphtho[1,8-ab]heptalen-2-yl]oxy}methyl)tetrahydro-1H-pyrrolizin-2(3H)-ylidene]ethan-1-ol]	3 nM	43 nM	94 nM	125 nM	3 nM	3 nM	2 nM	–	–	–
C=C1CN2CCC[C@@]2(COc2nc3c4c(nc(-c5c(C6CC6)c(Cl)cc6[nH]ncc56)c(F)c4n2)OC[C@@H]2COCC[C@H](C)N32)C1 [Example 38, (8aS,13S)-5-(6-chloro-5-cyclopropyl-1H-indazol-4-yl)-4-fluoro-13-methyl-2-{[(7aS)-2-methylidenetetrahydro-1H-pyrrolizin-7a(5H)-yl]methoxy}-8a,9,12,13-tetrahydro-8H,11H-7,10-dioxa-1,3,6,13a-tetraazanaphtho[1,8-ab]heptalene]	4 nM	8 nM	18 nM	2 nM	3 nM	4 nM	2 nM	–	–	–
C=C1CN2CCC[C@@]2(COc2nc3c4c(nc(-c5cccc6[nH]ncc56)c(F)c4n2)OC[C@@H]2COCCCN32)C1 [Example 34, (8aS)-4-fluoro-5-(1H-indazol-4-yl)-2-{[(7aS)-2-methylidenetetrahydro-1H-pyrrolizin-7a(5H)-yl]methoxy}-8a,9,12,13-tetrahydro-8H,11H-7,10-dioxa-1,3,6,13a-tetraazanaphtho[1,8-ab]heptalene]	> 10000 nM	> 9990 nM	> 9990 nM	9350 nM	> 10000 nM	> 10000 nM	> 10000 nM	–	–	–
CN(C)C(=O)/C=C1\CN2CCC[C@@]2(COc2nc3c4c(nc(-c5c(C6CC6)c(Cl)cc6[nH]ncc56)c(F)c4n2)OC[C@@H]2COCCCN32)C1 [Example 43, (2Z)-2-[(7aS)-7a-({[(8aS)-5-(6-chloro-5-cyclopropyl-1H-indazol-4-yl)-4-fluoro-8a,9,12,13-tetrahydro-8H,11H-7,10-dioxa-1,3,6,13a-tetraazanaphtho[1,8-ab]heptalen-2-yl]oxy}methyl)tetrahydro-1H-pyrrolizin-2(3H)-ylidene]-N,N-dimethylacetamide]	677 nM	> 9990 nM	> 9990 nM	5510 nM	539 nM	742 nM	493 nM	–	–	–
(8aS)-5-(6-chloro-5-cyclopropyl-1H-indazol-4-yl)-4-fluoro-2-{[(1S,7aS*)-1-methoxy-6-methylidenetetrahydro-1H-pyrrolizin-7a(5H)-yl]methoxy}-8a,9,12,13-tetrahydro-8H,11H-7,10-dioxa-1,3,6,13a-tetraazanaphtho[1,8-ab]heptalene [Example 61]	5 nM	–	–	–	4 nM	5 nM	3 nM	21 nM	38 nM	11 nM
COC/C=C1/CN2CCC[C@@]2(COc2nc3c4c(nc(-c5c(C6CC6)c(Cl)cc6[nH]ncc56)c(F)c4n2)OC[C@@H]2COCCCN32)C1 (relative stereo) [Example 48, (8aS)-5-(6-chloro-5-cyclopropyl-1H-indazol-4-yl)-4-fluoro-2-{[(2E,7aS*)-2-(2-methoxyethylidene)tetrahydro-1H-pyrrolizin-7a(5H)-yl]methoxy}-8a,9,12,13-tetrahydro-8H,11H-7,10-dioxa-1,3,6,13a-tetraazanaphtho[1,8-ab]heptalene]	41 nM	–	–	–	72 nM	65 nM	35 nM	–	–	–
COC/C=C1\CN2CCC[C@@]2(COc2nc3c4c(nc(-c5c6c(cc7[nH]ncc57)CCC[C@H]6OC)c(F)c4n2)OC[C@@H]2COCCCN32)C1 (relative stereo) [Example 59, (8aS)-4-fluoro-2-{[(2Z,7aS)-2-(2-methoxyethylidenetetrahydro-1H-pyrrolizin-7a(5H)-yl]methoxy}-5-[(5R*)-5-methoxy-5,6,7,8-tetrahydro-1H-benzo[f]indazol-4-yl]-8a,9,12,13-tetrahydro-8H,11H-7,10-dioxa-1,3,6,13a-tetraazanaphtho[1,8-ab]heptalene]	> 1000 nM	–	–	–	> 1000 nM	> 1000 nM	> 1000 nM	–	–	–
C=C1CN2CCC[C@@]2(COc2nc3c4c(nc(-c5c6c(cc7[nH]ncc57)CCC[C@H]6OC)c(F)c4n2)OC[C@@H]2COCCCN32)C1 (single isomer, unassigned) [Example 57, (8aS)-4-fluoro-5-[(5R*)-5-methoxy-5,6,7,8-tetrahydro-1H-benzo[f]indazol-4-yl]-2-{[(7aS)-2-methylidenetetrahydro-1H-pyrrolizin-7a(5H)-yl]methoxy}-8a,9,12,13-tetrahydro-8H,11H-7,10-dioxa-1,3,6,13a-tetraazanaphtho[1,8-ab]heptalene]	> 1000 nM	–	–	–	> 1000 nM	> 1000 nM	> 1000 nM	–	–	–
COC/C=C1/CN2CCC[C@@]2(COc2nc3c4c(nc(-c5c(C6CC6)c(Cl)cc6[nH]ncc56)c(F)c4n2)OC[C@@H]2COCCCN32)C1 (relative stereo) [Example 49, (8aS)-5-(6-chloro-5-cyclopropyl-1H-indazol-4-yl)-4-fluoro-2-{[(2E,7aR*)-2-(2-methoxyethylidene)tetrahydro-1H-pyrrolizin-7a(5H)-yl]methoxy}-8a,9,12,13-tetrahydro-8H,11H-7,10-dioxa-1,3,6,13a-tetraazanaphtho[1,8-ab]heptalene]	58 nM	–	–	–	73 nM	63 nM	41 nM	–	–	–
